Data from ChEMBL document CHEMBL4359862, “Cinnamamide: An insight into the pharmacological advances and structure-activity relationships” (Eur J Med Chem, 2019).
Converted amounts (≈) assume the structure as drawn.

Legend:
MGC-803 = experiment: Antiproliferative activity against human MGC803 cells; type: functional, cell-based
[1] = biological target: Telomerase reverse transcriptase (Homo sapiens, UniProt O14746); experiment: Inhibition of telomerase (unknown origin)
P388 = experiment: Antiproliferative activity against mouse P388 cells assessed as reduction in cell viability by MTT assay; type: functional, cell-based
HT-29 = experiment: Antiproliferative activity against human HT-29 cells assessed as reduction in cell viability by MTT assay; type: functional, cell-based
[2] = Antioxidant activity assessed as DPPH free radical scavenging activity by spectrophotometry; type: functional
[3] = biological target: Epidermal growth factor receptor (Homo sapiens, UniProt P00533); experiment: Inhibition of EGFR (unknown origin)
[4] = biological target: Vascular endothelial growth factor receptor 2 (Homo sapiens, UniProt P35968); experiment: Inhibition of VEGFR (unknown origin)
DU-145 [5] = experiment: Antiproliferative activity against human DU145 cells assessed as reduction in cell viability incubated for 48 hrs by MTT assay; type: functional, cell-based; details: DU-145, 48 h
DU-145 [6] = experiment: Antiproliferative activity against human DU145 cells; type: functional, cell-based
[7] = Inhibition of recombinant LFA1/ICAM1 (unknown origin) interaction incubated for 1 hr by time resolved fluorimetry; design: species or system Homo sapiens
MCF7 = experiment: Antiproliferative activity against human MCF7 cells assessed as reduction in cell viability incubated for 48 hrs by MTT assay; type: functional, cell-based; details: MCF7, 48 h
HeLa S3 = experiment: Antiproliferative activity against human HeLaS3 cells assessed as reduction in cell viability incubated for 72 hrs by cell counter method; type: functional, cell-based; details: HeLa S3, 72 h
Beta-secretase 1 = Beta-secretase 1 (Homo sapiens, UniProt P56817); experiment: Inhibition of recombinant human BACE 1 using Rh-EVNL-DAEFK-Quencher as substrate incubated for 60 mins by fluorescence based assay
[8] = biological target: T1, Tyrosinase (Agaricus bisporus) (UniProt O42713); experiment: Inhibition of mushroom tyrosinase at 25 uM using L-tyrosine as substrate incubated for 30 mins relative to control
T1 sequence (whole entry): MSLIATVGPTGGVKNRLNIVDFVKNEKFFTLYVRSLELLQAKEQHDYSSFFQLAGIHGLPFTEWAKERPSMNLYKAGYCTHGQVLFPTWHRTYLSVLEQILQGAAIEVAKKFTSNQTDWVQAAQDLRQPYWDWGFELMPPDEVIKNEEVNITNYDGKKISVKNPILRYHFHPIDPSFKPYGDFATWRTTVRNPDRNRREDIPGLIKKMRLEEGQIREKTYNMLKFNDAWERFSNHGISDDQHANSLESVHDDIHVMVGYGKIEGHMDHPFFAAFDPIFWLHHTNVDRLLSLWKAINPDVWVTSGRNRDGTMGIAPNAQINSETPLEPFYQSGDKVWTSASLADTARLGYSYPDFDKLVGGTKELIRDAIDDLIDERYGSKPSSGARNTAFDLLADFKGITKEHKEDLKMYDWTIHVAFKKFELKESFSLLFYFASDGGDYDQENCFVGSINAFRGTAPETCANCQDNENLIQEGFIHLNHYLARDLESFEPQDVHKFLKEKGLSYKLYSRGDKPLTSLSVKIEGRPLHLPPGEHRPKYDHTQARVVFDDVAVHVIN

B2 bradykinin receptor = biological target: T2, B2 bradykinin receptor (Cavia porcellus, UniProt O70526); experiment: Displacement of [3H]BK from Bradykinin B2 Receptor in guinea pig ileum by liquid scintillation counter; type: tissue-based
T2 sequence (O70526 whole entry): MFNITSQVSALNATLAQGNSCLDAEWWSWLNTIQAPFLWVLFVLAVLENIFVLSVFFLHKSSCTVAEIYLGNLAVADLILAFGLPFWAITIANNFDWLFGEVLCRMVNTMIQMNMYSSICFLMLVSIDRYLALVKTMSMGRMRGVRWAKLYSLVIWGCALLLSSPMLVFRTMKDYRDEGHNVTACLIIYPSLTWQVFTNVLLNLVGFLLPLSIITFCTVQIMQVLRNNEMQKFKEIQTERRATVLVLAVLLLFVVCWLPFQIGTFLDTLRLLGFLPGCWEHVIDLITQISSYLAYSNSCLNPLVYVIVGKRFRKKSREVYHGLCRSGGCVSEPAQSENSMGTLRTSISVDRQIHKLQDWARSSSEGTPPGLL

Escherichia coli [9] = experiment: Antibacterial activity against Escherichia coli assessed as reduction in bacterial cell viability incubated for 24 hrs by serial dilution assay; type: functional
Candida albicans = experiment: Antifungal activity against Candida albicans assessed as reduction in fungal cell growth incubated for 48 hrs by serial dilution assay; type: functional
[10] = Inhibition of recombinant LFA1/ICAM1 (unknown origin) interaction in JY-8 cells expressing LFA1 incubated for 45 mins by fluorescence based assay; type: cell-based, Homo sapiens
Escherichia coli [11] = experiment: Antibacterial activity against Escherichia coli assessed as reduction in bacterial cell viability by well plate method; type: functional
Bacillus subtilis = experiment: Antibacterial activity against Bacillus subtilis assessed as reduction in bacterial cell viability by well plate method; type: functional

Sequence of Vascular endothelial growth factor receptor 2 (P35968 whole entry): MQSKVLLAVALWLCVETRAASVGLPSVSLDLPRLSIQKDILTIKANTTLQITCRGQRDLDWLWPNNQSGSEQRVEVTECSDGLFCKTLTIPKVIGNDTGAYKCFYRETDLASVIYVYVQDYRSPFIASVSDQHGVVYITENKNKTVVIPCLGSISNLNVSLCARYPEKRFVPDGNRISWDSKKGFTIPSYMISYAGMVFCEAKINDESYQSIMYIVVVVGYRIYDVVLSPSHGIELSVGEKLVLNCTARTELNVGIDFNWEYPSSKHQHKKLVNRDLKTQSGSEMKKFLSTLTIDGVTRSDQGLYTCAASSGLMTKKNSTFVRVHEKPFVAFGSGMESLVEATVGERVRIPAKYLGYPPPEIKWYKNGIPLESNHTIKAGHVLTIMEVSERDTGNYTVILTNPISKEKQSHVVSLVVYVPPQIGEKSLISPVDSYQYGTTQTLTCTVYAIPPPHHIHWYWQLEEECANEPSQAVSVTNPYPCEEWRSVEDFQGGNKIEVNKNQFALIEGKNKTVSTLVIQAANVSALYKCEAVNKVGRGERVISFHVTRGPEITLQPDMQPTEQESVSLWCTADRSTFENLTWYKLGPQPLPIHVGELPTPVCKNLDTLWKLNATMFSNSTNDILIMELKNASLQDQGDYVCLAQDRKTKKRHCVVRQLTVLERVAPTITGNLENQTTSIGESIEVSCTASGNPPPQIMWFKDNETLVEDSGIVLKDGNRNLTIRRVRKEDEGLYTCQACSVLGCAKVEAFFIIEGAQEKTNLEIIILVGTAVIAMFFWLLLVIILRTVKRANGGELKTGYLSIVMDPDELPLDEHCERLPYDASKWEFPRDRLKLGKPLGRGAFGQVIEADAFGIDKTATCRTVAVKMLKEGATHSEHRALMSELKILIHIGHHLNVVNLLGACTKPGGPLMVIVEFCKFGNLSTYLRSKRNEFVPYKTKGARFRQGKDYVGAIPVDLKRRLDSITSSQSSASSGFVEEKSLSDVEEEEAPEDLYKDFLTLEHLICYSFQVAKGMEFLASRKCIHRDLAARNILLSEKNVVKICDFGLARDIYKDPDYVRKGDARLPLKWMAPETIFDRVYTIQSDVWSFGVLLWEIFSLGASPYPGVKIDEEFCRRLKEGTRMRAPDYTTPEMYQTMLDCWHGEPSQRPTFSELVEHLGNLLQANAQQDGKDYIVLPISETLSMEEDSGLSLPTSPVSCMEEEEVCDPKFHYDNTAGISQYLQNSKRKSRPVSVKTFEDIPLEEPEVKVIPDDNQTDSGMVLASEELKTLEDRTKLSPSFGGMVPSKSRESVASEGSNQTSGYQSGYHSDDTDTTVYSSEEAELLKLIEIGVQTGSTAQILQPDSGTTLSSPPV
Sequence of Epidermal growth factor receptor (P00533 whole entry): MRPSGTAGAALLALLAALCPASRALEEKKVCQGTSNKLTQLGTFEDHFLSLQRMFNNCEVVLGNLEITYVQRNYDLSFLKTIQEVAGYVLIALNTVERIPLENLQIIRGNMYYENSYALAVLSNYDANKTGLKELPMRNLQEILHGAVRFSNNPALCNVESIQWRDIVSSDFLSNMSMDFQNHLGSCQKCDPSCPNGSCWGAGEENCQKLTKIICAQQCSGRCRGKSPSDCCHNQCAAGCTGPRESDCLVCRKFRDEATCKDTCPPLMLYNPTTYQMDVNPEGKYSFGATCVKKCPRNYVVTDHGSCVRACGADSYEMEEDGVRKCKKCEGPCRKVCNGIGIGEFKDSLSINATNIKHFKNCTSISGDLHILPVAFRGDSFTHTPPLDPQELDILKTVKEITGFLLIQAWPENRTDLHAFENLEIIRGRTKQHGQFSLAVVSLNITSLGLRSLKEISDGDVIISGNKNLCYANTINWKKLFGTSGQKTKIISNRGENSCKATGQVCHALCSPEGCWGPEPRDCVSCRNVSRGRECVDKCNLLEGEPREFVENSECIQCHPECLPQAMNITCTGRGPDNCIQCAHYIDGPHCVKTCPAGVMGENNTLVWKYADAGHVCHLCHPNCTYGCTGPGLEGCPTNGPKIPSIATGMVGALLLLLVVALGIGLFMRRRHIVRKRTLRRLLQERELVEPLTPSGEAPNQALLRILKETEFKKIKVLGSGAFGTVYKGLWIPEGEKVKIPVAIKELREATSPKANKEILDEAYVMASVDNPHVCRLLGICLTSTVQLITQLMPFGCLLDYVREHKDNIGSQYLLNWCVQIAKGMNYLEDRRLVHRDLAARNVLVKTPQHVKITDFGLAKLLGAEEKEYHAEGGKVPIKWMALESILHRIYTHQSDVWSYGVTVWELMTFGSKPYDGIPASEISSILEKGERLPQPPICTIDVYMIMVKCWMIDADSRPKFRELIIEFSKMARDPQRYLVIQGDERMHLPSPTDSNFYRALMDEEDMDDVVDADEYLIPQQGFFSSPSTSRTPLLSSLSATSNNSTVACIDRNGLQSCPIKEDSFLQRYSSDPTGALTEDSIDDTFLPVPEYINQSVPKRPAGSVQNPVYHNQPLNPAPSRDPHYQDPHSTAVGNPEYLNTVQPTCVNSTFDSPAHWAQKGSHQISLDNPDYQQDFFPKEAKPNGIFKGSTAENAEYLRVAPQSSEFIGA
Sequence of Beta-secretase 1 (P56817 whole entry): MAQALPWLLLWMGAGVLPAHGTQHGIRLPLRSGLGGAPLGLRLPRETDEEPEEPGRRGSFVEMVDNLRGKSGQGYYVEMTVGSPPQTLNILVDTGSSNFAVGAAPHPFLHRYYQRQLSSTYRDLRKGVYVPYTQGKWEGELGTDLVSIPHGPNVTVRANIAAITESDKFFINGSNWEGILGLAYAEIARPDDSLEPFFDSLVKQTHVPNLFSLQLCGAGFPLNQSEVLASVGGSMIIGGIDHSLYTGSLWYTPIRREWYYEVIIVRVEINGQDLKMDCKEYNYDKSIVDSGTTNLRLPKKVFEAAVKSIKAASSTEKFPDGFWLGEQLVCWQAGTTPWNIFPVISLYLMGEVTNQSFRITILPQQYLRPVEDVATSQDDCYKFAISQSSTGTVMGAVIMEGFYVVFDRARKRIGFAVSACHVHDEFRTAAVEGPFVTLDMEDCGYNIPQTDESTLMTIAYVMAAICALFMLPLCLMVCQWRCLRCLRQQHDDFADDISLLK
Sequence of Telomerase reverse transcriptase (O14746 whole entry): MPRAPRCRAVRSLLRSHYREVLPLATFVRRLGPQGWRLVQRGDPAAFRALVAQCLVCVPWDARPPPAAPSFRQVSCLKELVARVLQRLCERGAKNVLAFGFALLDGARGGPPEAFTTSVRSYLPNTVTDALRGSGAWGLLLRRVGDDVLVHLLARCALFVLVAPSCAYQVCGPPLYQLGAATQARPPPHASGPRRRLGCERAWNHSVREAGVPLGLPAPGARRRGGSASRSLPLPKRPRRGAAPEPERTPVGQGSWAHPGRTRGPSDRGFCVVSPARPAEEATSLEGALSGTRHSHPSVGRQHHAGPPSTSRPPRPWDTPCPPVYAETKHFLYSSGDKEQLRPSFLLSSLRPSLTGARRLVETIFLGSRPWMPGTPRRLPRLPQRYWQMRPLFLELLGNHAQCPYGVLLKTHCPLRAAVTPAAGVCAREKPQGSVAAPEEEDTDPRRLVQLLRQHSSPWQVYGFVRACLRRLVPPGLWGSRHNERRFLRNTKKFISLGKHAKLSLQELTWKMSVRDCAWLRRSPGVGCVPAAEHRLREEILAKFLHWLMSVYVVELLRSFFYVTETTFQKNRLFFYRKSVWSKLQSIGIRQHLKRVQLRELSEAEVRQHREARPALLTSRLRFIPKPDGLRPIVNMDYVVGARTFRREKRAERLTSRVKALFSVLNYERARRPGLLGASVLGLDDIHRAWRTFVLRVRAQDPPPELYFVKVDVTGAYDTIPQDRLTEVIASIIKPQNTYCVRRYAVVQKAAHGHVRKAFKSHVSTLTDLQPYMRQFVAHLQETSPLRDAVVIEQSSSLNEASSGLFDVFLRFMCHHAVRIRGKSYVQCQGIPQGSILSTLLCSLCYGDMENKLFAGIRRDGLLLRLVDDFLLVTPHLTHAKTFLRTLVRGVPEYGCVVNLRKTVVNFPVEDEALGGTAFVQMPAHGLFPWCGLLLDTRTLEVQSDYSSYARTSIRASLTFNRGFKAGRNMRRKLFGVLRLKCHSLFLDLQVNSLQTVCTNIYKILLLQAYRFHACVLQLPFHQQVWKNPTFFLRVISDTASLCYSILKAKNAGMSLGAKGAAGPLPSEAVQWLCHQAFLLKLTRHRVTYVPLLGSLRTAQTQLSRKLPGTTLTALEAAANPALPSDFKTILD

**Q.** For CCCc1n[nH]c(C(N)=O)c1NC(=O)/C=C/c1ccco1, which IC50 (MGC-803) is on record?
**A.** 3010 nM

**Q.** What about the IC50 [1] of the same compound?
**A.** 1020 nM

**Q.** What does the source list for COc1cc(/C=C/C(=O)NCCc2cc(OC)c(O)c(OC)c2)ccc1O?
**A.** IC50 (P388): 4000 nM; IC50 (HT-29): 4000 nM

**Q.** For O=C(/C=C/c1ccc(O)c(O)c1)NCCc1c[nH]c2ccc(O)cc12 [N-CAFFEOYLSEROTONIN], which EC50 [2] is on record?
**A.** 8100 nM

**Q.** Which results are given for COc1cc(/C=C/C(=O)Nc2cc3c(Nc4ccc(F)c(Cl)c4)ncnc3cc2O[C@@H]2CCOC2)cc(OC)c1OC?
**A.** IC50 [3]: 9 nM; IC50 [4]: 3.6 nM

**Q.** For C=CCOc1cc(/C=C/C(=O)Nc2cc(OC)c(OC)c(OC)c2)ccc1N/C=C\C(=O)c1ccc(OC)c([N+](=O)[O-])c1, which IC50 (DU-145 [5]) is on record?
**A.** 8910 nM

**Q.** With O=C(/C=C/c1ccc(O)cc1)N1Cc2ccccc2[C@@H](OCc2ccccc2)[C@@H]1CO as the compound, how does the IC50 (DU-145 [6]) read?
**A.** 2080 nM

**Q.** Which IC50 [7] does the source give for O=C(O)C1CCCN(C(=O)/C=C/c2ccc(Sc3ccc4c(c3)OCCO4)c(C(F)(F)F)c2)C1 (stereo unspecified) here?
**A.** 25 nM

**Q.** Which IC50 (MCF7) does the source give for CCCCCCCCCCCCNC(=O)/C=C/c1ccccc1 [N-DODECYLCINNAMAMIDE] here?
**A.** 11100 nM

**Q.** With CC(=O)N1CCN(C(=O)/C=C/c2ccc(Sc3ccccc3C(C)C)c([N+](=O)[O-])c2)CC1 [A-286982] as the compound, how does the IC50 [7] read?
**A.** 35 nM

**Q.** Which IC50 (HeLa S3) does the source give for COc1ccc(/C=C/C(=O)N2C[C@H]3C[C@@]34C2=CC(=O)c2[nH]c(C)c(Br)c24)cc1 here?
**A.** 0.065 nM

**Q.** For CC(=O)N1CCN(C(=O)/C=C/c2ccc(Sc3ccc(Cl)cc3Cl)c([N+](=O)[O-])c2)CC1, which IC50 [7] is on record?
**A.** 90 nM

**Q.** Which IC50 (Beta-secretase 1) does the source give for O=C(/C=C/c1ccccc1)NCCc1cc2cc(O)ccc2[nH]1 here?
**A.** 86700 nM

**Q.** For O=C(/C=C/c1ccc(O)cc1O)NC1CCCC1, which inhibition [8] is on record?
**A.** 94.1%

**Q.** With CNC(=O)c1ccc(/C=C/C(=O)NCC(=O)N(C)c2ccc(Cl)c(COc3cccc4ccc(C)nc34)c2Cl)cn1 as the compound, how does the IC50 (B2 bradykinin receptor) read?
**A.** 0.46 nM

**Q.** For O=C(/C=C/c1ccccc1)Nc1ccc([N+](=O)[O-])cc1, which “log(1/MIC)” value (Escherichia coli [9]) is on record?
**A.** 2.43

**Q.** What about the “log(1/MIC)” value (Candida albicans) of the same compound?
**A.** 2.43

**Q.** With COc1ccc(/C=C/C(=O)Nc2cc3c(Nc4ccc(F)c(Cl)c4)ncnc3cc2O[C@@H]2CCOC2)cc1 as the compound, how does the IC50 [3] read?
**A.** 9 nM

**Q.** What about the IC50 [4] of the same compound?
**A.** 3.6 nM

**Q.** With O=C(/C=C/c1ccccc1)N1CCCCC1 as the compound, how does the “log(1/MIC)” value (Escherichia coli [9]) read?
**A.** 2.43

**Q.** And the “log(1/MIC)” value (Candida albicans)?
**A.** 2.43

**Q.** Which IC50 [10] does the source give for O=C(O)C1CCN(C(=O)/C=C/c2ccc(Sc3ccc4c(c3)OCCO4)c(C(F)(F)F)c2C(F)(F)F)CC1 here?
**A.** 0.5 nM

**Q.** For COc1cc(/C=C/C(=O)N2CCOCC2)cc(OC)c1OC, which MIC (Escherichia coli [11]) is on record?
**A.** 25 µM (≈ 7.68 µg/mL)

**Q.** What about the MIC (Bacillus subtilis) of the same compound?
**A.** 25 µM (≈ 7.68 µg/mL)
